From patent US9790252B2, “2-fluorinated riboses and arabinoses and methods of use and synthesis” (CORNELL UNIVERSITY, priority 2009, dated 2017)

How the values were obtained:
SirT2 = target: T1, SirT2 (Homo sapiens, UniProt Q8IXJ6); assay: SirT2 activity assay (HPLC of 2′- and 3′-AADPR); assay type: biochemical; settings: 800 μM NAD+, 500 μM H3 peptide, pH 7.5, 45 mins at 37° C.
T1 sequence (Q8IXJ6 1-389): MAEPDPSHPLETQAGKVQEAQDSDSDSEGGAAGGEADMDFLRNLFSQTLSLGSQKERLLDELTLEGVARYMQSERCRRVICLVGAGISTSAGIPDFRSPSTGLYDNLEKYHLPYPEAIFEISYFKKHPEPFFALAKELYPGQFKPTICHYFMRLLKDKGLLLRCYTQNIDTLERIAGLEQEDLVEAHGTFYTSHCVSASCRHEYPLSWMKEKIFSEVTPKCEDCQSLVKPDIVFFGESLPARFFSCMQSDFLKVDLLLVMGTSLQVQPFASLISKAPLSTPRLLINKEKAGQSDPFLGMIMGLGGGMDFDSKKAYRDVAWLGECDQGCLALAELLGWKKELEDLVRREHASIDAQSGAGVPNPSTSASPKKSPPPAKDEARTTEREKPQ
Protocol: (§1) Reactions containing 800 μM NAD^+, 500 μM H3 peptide, and 100 mM phosphate buffer at pH 7.5, with varying concentrations of 2′-deoxy-2′-fluoro-nucleosides or nucleotides were initiated by addition of SirT2 enzyme to a concentration of 16.6 μM. Reactions were incubated for 45 mins at 37° C. and quenched by addition of trifluoroacetic acid to pH 2. After centrifugation to remove precipitates, reactions were injected on HPLC for activity analysis. Production of 2′- and 3′-AADPR were analyzed at 260 nm.
as §1, with “SirT2 Activity Assay: Reactions containing” for “Reactions containing”, “concentrations of 2′-deoxy-2′-chloro-nucleosides were initiated” for “concentrations of 2′-deoxy-2′-fluoro-nucleosides or nucleotides were initiated”

HEK293 cells = assay: Toxicity to HEK293 cells (MTT); assay type: cell-based; settings: for 100 μM absorbance / 100 μM relative viability: HEK293, 100 μM; for 100 μM absorbance / 100 μM relative viability / 500 μM absorbance / 500 μM relative viability: 12 hours; for 100 μM absorbance / 500 μM absorbance: 570 nm; for 100 μM relative viability / 500 μM relative viability: control = 1; for 500 μM absorbance / 500 μM relative viability: HEK293, 500 μM
Neuro2A cells = assay: Toxicity to Neuro2A cells (MTT); assay type: cell-based; settings: for 100 μM absorbance / 100 μM relative viability / 500 μM absorbance / 500 μM relative viability: 12 hours; for 100 μM absorbance / 500 μM absorbance: 570 nm
[1] = Homo sapiens, HEK293, HEK293, 2′-deoxy-2′-fluoro-nucleosides and nucleotides
[2] = Mus musculus, N2a, 2′-deoxy-2′-fluoro-nucleosides and nucleotides
[3] = MTT 2 hours, chloro-nucleosides
[4] = control = 1, chloro-nucleosides

Structure (SMILES)	Ki (SirT2)	100 μM absorbance (HEK293 cells; MTT 1.5 hours)	100 μM relative viability (HEK293 cells)	500 μM absorbance (HEK293 cells; MTT 1.5 hours)	500 μM relative viability (HEK293 cells)	EC50 (HEK293 cells; [1])	100 μM absorbance (Neuro2A cells; MTT 1.5 hours)	100 μM relative viability (Neuro2A cells; control = 1)	500 μM absorbance (Neuro2A cells; MTT 1.5 hours)	500 μM relative viability (Neuro2A cells; control = 1)	EC50 (Neuro2A cells; [2])	also measured
NC(=O)c1ccc[n+]([C@@H]2O[C@H](CO)C(O)C2F)c1 (some centres unmarked) [ara-F-NR, 1-(2′-deoxy-2′-fluoro-arabinofuranosyl)-nicotinamide]	2300 µM	1.5325	0.6741	1.25	0.5499	550 µM	2.0227	0.831	2.0666	0.849	3840 µM	
NC(=O)c1ccc[n+]([C@@H]2O[C@H](COP(=O)([O-])O)C(O)C2(F)F)c1 (some centres unmarked) [gem-diF-NMN, 2′-deoxy-2′,2′-difluoro-ribo-nicotinamide mononucleotide]	162 µM	1.559	0.6858	0	0	118 µM	1.0774	0.443	0.0217	0.009	64 µM	
NC(=O)c1ccc[n+]([C@@H]2O[C@H](CO)[C@@H](O)C2(F)F)c1 [gem-diF-NR, 1-(2′-deoxy-2′,2′-difluoro-ribofuranosyl)-nicotinamide]		1.679	0.7386	1.43	0.6289	846 µM	0.8234	0.338	0.5374	0.221	61 µM	SirT2 Ki (SirT2): Ki = high mM
NC(=O)c1ccc[n+]([C@@H]2O[C@H](COP(=O)([O-])O)C(O)C2F)c1 (some centres unmarked) [ribo-F-NMN, 2′-deoxy-2′-fluoro-ribo-nicotinamide mononucleotide]	450 µM	1.2275	0.54	0.9845	0.4331		2.2023	0.905	1.7872	0.735		EC50 (HEK293 cells; HEK293, 2′-deoxy-2′-fluoro-nucleosides and nucleotides): 241 µM; EC50 (Neuro2A cells; 2′-deoxy-2′-fluoro-nucleosides and nucleotides): 1400 µM
NC(=O)c1ccc[n+]([C@@H]2O[C@H](CO)C(O)[C@@H]2F)c1 (stereo partly drawn) [ribo-F-NR, 1-(2-deoxy-2-fluoro-D-ribofuranosyl)-nicotinamide]	1730 µM	0.019	0.008358	0.0015	0.00066	17 µM	1.8769	0.771	0.8391	0.345	281 µM	
NC(=O)c1ccc[n+]([C@@H]2O[C@H](CO)C(O)C2Cl)c1 (stereo partly drawn) [β-ara-Cl-NR, 1-(2′-deoxy-2′-chloro-arabinofuranosyl)-nicotinamide]	3200 µM											100 μM absorbance (HEK293 cells; [3]): 0; 100 μM relative viability (HEK293 cells; chloro-nucleosides): 0; 500 μM absorbance (HEK293 cells; [3]): 0; 500 μM relative viability (HEK293 cells; chloro-nucleosides): 0; EC50 (HEK293 cells; Homo sapiens, HEK293, HEK293, 2′-deoxy-2′-chloro-nucleosides): 5 µM; 100 μM absorbance (Neuro2A cells; [3]): 0; 100 μM relative viability (Neuro2A cells; [4]): 0; 500 μM absorbance (Neuro2A cells; [3]): 0; 500 μM relative viability (Neuro2A cells; [4]): 0; EC50 (Neuro2A cells; Mus musculus, N2a, 2′-deoxy-2′-chloro-nucleosides): 9 µM
NC(=O)c1ccc[n+]([C@@H]2O[C@H](CO)C(O)C2(Cl)Cl)c1 (stereo partly drawn) [β-gem-diCl-NR, 1-(2′-deoxy-2′,2′-dichloro-ribofuranosyl)-nicotinamide]	403 µM											100 μM absorbance (HEK293 cells; [3]): 2.05; 100 μM relative viability (HEK293 cells; chloro-nucleosides): 0.8436; 500 μM absorbance (HEK293 cells; [3]): 1.63; 500 μM relative viability (HEK293 cells; chloro-nucleosides): 0.6708; kills % of HEK293 cells (HEK293 cells; HEK293, at 500 μM): kills 30% at 500 μM; 100 μM absorbance (Neuro2A cells; [3]): 2.615; 100 μM relative viability (Neuro2A cells; [4]): 1.106; 500 μM absorbance (Neuro2A cells; [3]): 2.63; 500 μM relative viability (Neuro2A cells; [4]): 1.112; toxicity to Neuro2A (in words) (Neuro2A cells; at 500 μM): not toxic at 500 μM
